Where two headings read alike, the source gives them in different places.
Target: SARS-CoV-2 NSP3 macrodomain (Mac1) (Severe acute respiratory syndrome coronavirus 2, UniProt P0DTD1)
Assay: biochemical
Format: binding
[1] = SARS CoV-2 macrodomain HTRF assay
[2] = SARS CoV-2 macrodomain HTRF assay, dose-response, read-out: IC50
[3] = Single dose, concentration 200 μM
[4] = compound at 200 μM, mean of three to four technical replicates, read-out: % competition at 200 μM (preliminary HTRF screen)
[5] = read-out: IC50 (confirmatory HTRF dose-response screen)
[6] = SARS CoV-2 macrodomain HTRF assay, single dose concentration 200 μM
[7] = single dose concentration 200 μM (TS-FrankenROCS series)
[8] = SARS CoV-2 macrodomain HTRF assay, single dose concentration 200 μM, read-out: Average % competition

## Cn1ccc2cc(NC(=O)C3CC(=O)NC4CCCCC43)ccc21 (centres unmarked) [AVI-342]
  Average % competition: <10%

## OC1(CNc2ncnc3[nH]ccc23)CCCCC1 [AVI-6217]
[1]
  Ki: 39 µM
  Ligand efficiency (binding enery per heavy atom): 0.34
[2]
  IC50: 42 µM

## O=C(O)C1CN(C(=O)c2cccc3[nH]ccc23)c2ccccc21 (centres unmarked) [AVI-314]
dose-response, read-out: IC50
  IC50: > 1000 µM

## Cc1c[nH]c2ncnc(NCC3(O)CCOCC3)c12 [AVI-4194, 4-(((5-methyl-7H-pyrrolo[2,3-d]pyrimidin-4-yl)amino)methyl)tetrahydro-2H-pyran-4-ol]
[1]
  Ki: 150 µM
  Ligand efficiency (binding enery per heavy atom): 0.28
[2]
  IC50: 160 µM

## OC1(CNc2ncnc3[nH]ccc23)CCCC(C(F)(F)F)C1 (centres unmarked) [AVI-4309]
[1]
  Ki: 140 µM
  Ligand efficiency (binding enery per heavy atom): 0.24
[2]
  IC50: 150 µM

## O=C1COc2cc(C(=O)N3CC(C(=O)O)c4ccccc43)ccc2N1 (centres unmarked) [AVI-289]
dose-response, read-out: IC50
  IC50: > 1000 µM

## CC(C)(CO)Nc1ncnc2[nH]ccc12 [AVI-5266]
[1]
  Ki: 30 µM
[2]
  IC50: 32 µM

## O=C(O)C1CCc2nnc(-c3ccc(F)cc3)n2C1 (centres unmarked) [AVI-326]
  Average % competition: 15%

## c1ccn2c(Sc3ncnc4ccsc34)nnc2c1 [AVI-308]
  Average % competition: 0%

## OC1(CNc2ncnc3[nH]ccc23)CCCSC1 (centres unmarked) [AVI-4322]
[1]
  Ki: 49 µM
  Ligand efficiency (binding enery per heavy atom): 0.33
[2]
  IC50: 53 µM

## O=C(O)C(F)(F)F.OCC(Nc1ncnc2[nH]ccc12)C(O)C1CCCCC1 (centres unmarked) [AVI-3687]
[3]
  Average % competition: 33%
[4]
  inhibition at 200 µM: 33%

## O=C(O)C(F)(F)F.OCC(Cc1cccc(F)c1)Nc1ncnc2[nH]ccc12 (centres unmarked) [AVI-3706]
[3]
  Average % competition: 77%
[4]
  inhibition at 200 µM: 77%

## O=S1(=O)CCCC(O)(CNc2ncnc3[nH]ccc23)C1 (centres unmarked) [AVI-4317]
[1]
  Ki: 100 µM
  Ligand efficiency (binding enery per heavy atom): 0.28
[5]
  IC50: 110 µM

## O[C@@H]1CNCC[C@H]1Nc1ncnc2[nH]ccc12 [AVI-613]
[3]
  Average % competition: <10%
[4]
  inhibition at 200 µM: < 10%

## OC1(CNc2ncnc3[nH]ccc23)CCCOC1 (centres unmarked) [AVI-4311]
[1]
  Ki: 160 µM
  Ligand efficiency (binding enery per heavy atom): 0.29
[2]
  IC50: 170 µM

## CC(O)C1CCCN1c1ncnc2[nH]ccc12 (centres unmarked) [AVI-4062]
HTRF
  fold decrease in affinity relative to AVI-607: ~ 10 fold
[1]
  Ki: 51 µM
  Ligand efficiency (binding enery per heavy atom): 0.35
[5]
  IC50: 55 µM

## CC(OC(=O)c1ccc2nc(N)sc2c1)C(=O)N1CCCCCC1 (centres unmarked) [AVI-304]
  Average % competition: 0%

## O=C(O)C(F)(F)F.OC1c2ccccc2CC1Nc1ncnc2[nH]ccc12 (centres unmarked) [AVI-3634]
[3]
  Average % competition: <10%
[4]
  inhibition at 200 µM: < 10%

## CN(C)C[C@@]1(O)CCCN(c2ncnc3[nH]ccc23)C1 [AVI-614]
[6]
  Average % competition: <10%
[4]
  inhibition at 200 µM: < 10%

## CC1CCCC1OC(=O)Cn1cnc2c1c(=O)n(C)c(=O)n2C (centres unmarked) [AVI-335]
  Average % competition: <10%

## Cc1c[nH]c2ncnc(NCC3(O)CCCCC3)c12 [AVI-3761, 1-(((5-methyl-7H-pyrrolo[2,3-d]pyrimidin-4-yl)amino)methyl)cyclohexan-1-ol]
  Ki: 12 µM
[5]
  IC50: 13 µM

## O=C(O)C1CN(C(=O)c2ccc3n[nH]nc3c2)c2ccccc21 (centres unmarked) [AVI-319]
  Average % competition: 25%

## CC(=O)Nc1ccc(NC(=O)CSc2nnnn2C2CCCC2)cc1 [AVI-315]
  Average % competition: 0%

## O=C(NCCCN1C(=O)NC2(CCCC2)C1=O)c1ccc(=O)[nH]c1 [AVI-300]
  Average % competition: 8%

## OC1(CNc2ncnc3[nH]ccc23)CCC2(CC1)OCCO2 [AVI-4315]
[1]
  Ki: 200 µM
  Ligand efficiency (binding enery per heavy atom): 0.23
[2]
  IC50: 210 µM

## N#Cc1cnc(CSc2nc(-c3ccccc3)co2)nc1N [AVI-332]
  Average % competition: <10%

## O[C@@]1(Cn2ccnn2)CCCN(c2ncnc3[nH]ccc23)C1 [AVI-608]
[6]
  Average % competition: 8%
[4]
  inhibition at 200 µM: < 10%

## CNS(=O)(=O)c1cc(C(=O)N2CCOc3ccccc32)n(C)c1 [AVI-309]
  Average % competition: 0%

## Cc1nc2cc(NC(=O)C3CC(=O)Nc4ccccc43)ccc2o1 (centres unmarked) [AVI-292]
  Average % competition: 0%

## CNc1ccc(NS(=O)(=O)c2cc3cccc(C)c3s2)cn1 [AVI-345]
[4]
  inhibition at 200 µM: 18%
[7]
  Average % competition: 18%

## Nc1cccc(CSC2CCc3ccccc32)n1 (centres unmarked) [AVI-6015]
read-out: IC50
  IC50: > 1000 µM

## CC(C)(C)C(O)CC(CO)Nc1ncnc2[nH]ccc12.O=C(O)C(F)(F)F (centres unmarked) [AVI-3714]
[3]
  Average % competition: <10%
[4]
  inhibition at 200 µM: < 10%

## Cc1noc(NCc2cc3ccccc3[nH]c2=O)n1 [AVI-322]
  Average % competition: 0%

## O=c1[nH]c2ccccc2cc1CNc1nc(C2CC2)ns1 [AVI-346]
dose-response, read-out: IC50
  IC50: > 1000 µM
[7]
  Average % competition: <10%

## NC(=O)N1CCC[C@H]1C(=O)Nc1ccc2ncnn2c1 [AVI-330]
  Average % competition: 14%

## O=C(c1cc(C2CCCCC2)[nH]n1)N1CCCC(O)(C(F)(F)F)CC1 (centres unmarked) [AVI-318]
  Average % competition: 13%

## O=C1CCc2cc(C(=O)N3CC(C(=O)O)CCC34CCCC4)c(F)cc2N1 (centres unmarked) [AVI-338]
  Ligand efficiency (binding enery per heavy atom): 0.16
dose-response
  Ki: 740 µM
dose-response, read-out: IC50
  IC50: 800 µM

## COc1ccc(-c2nccc(N3CCC(c4ccsc4)CC3)n2)cc1 [AVI-344]
  Average % competition: <10%

## CC(C)CCC(CO)Nc1ncnc2[nH]ccc12.O=C(O)C(F)(F)F (centres unmarked) [AVI-3668]
[3]
  Average % competition: 38%
[4]
  inhibition at 200 µM: 38%

## CC1CN(C(=O)c2ccccc2S(C)(=O)=O)c2cccnc2O1 (centres unmarked) [AVI-294]
  Average % competition: 13%

## CC(Nc1ncnc2[nH]ccc12)C1(O)CCCCC1 (centres unmarked) [AVI-4321]
[1]
  Ki: 45 µM
  Ligand efficiency (binding enery per heavy atom): 0.32
[2]
  IC50: 48 µM

## OC1(CNc2ncnc3[nH]ccc23)CCSCC1 [AVI-4319]
[1]
  Ki: 160 µM
  Ligand efficiency (binding enery per heavy atom): 0.29
[2]
  IC50: 170 µM

## CC(C(=O)NCc1c(C(=O)O)[nH]c2ccccc12)n1cncn1 (centres unmarked) [AVI-337]
  Average % competition: 14%

## Cc1ccc(C)c(CN2C(=O)NC(C)(Cc3ccc4c(c3)OCO4)C2=O)c1 (centres unmarked) [AVI-320]
  Average % competition: 18%

## Cc1ccc2c(c1)C(=O)N(CCC(=O)Nc1cnc3c(c1)c(C)nn3C)C2=O [AVI-301]
  Average % competition: 16%

## Nc1ncnc(N2CCC(C(F)(F)F)C3(CCC3)C2)c1Cl (centres unmarked) [AVI-324]
  Average % competition: <10%

## O=C(O)C(F)(F)F.OC[C@@H](CCc1ccccc1)Nc1ncnc2[nH]ccc12 [AVI-3654]
[3]
  Average % competition: 27%
[4]
  inhibition at 200 µM: 27%

## Cc1ccc(CC(=O)N2CCSC23CC(C(=O)O)C3)cc1O (centres unmarked) [AVI-347]
  Average % competition: <10%

## Nc1ncnc(N2CCCCC3(CCC3)C2)c1Cl [AVI-6017]
read-out: IC50
  IC50: > 1000 µM

## CC(O)C1CCN(c2cc(N3CCC(c4ccccc4)CC3C)ncn2)C1 (centres unmarked) [AVI-6016]
read-out: IC50
  IC50: > 1000 µM

## Cc1c[nH]c2ncnc(NCC3(O)CCC(C)(C)CC3)c12 [AVI-4330]
[1]
  Ki: 610 µM
  Ligand efficiency (binding enery per heavy atom): 0.21
[2]
  IC50: 650 µM

## Cc1ccc(O)c(C(=O)c2cnn3c(N)nnc3c2)c1 [AVI-310]
  Average % competition: 0%

## CC1(C)CCC(O)(CNc2ncnc3[nH]ccc23)CC1 [AVI-4310]
[1]
  Ki: 71 µM
  Ligand efficiency (binding enery per heavy atom): 0.29
[2]
  IC50: 76 µM

## O=C(O)C(F)(F)F.O=[N+]([O-])c1ccc(C(O)C(CO)Nc2ncnc3[nH]ccc23)cc1 (centres unmarked) [AVI-3672]
[3]
  Average % competition: 43%
[4]
  inhibition at 200 µM: 43%

## OC1(CNc2ncnc3[nH]ccc23)CCC(F)(F)CC1 [AVI-4308]
[1]
  Ki: 130 µM
  Ligand efficiency (binding enery per heavy atom): 0.27
[2]
  IC50: 140 µM

## O=C1CC(C(=O)Nc2nc3c(s2)CCCC3)c2ccccc2N1 (centres unmarked) [AVI-307]
  Average % competition: 0%

## O=C(O)C(F)(F)F.OCC1C2C=CC(C2)N1c1ncnc2[nH]ccc12 (centres unmarked) [AVI-3712]
[8]
  inhibition at 200 µM: 55%
[4]
  inhibition at 200 µM: 55%

## OCC1C=CCCN1c1ncnc2[nH]ccc12 (centres unmarked) [AVI-5998]
[1]
  Ki: 150 µM
  Ligand efficiency (binding enery per heavy atom): 0.31
[2]
  IC50: 160 µM

## CN(CC1(O)CCOCC1)c1ncnc2[nH]ccc12 [AVI-4318]
[1]
  Ki: 66 µM
  Ligand efficiency (binding enery per heavy atom): 0.30
[2]
  IC50: 71 µM

## O=C(O)C(F)(F)F.OCC(CC1CCOCC1)Nc1ncnc2[nH]ccc12 (centres unmarked) [AVI-3676]
[3]
  Average % competition: <10%
[4]
  inhibition at 200 µM: < 10%

## CNC(=O)c1ccc(NC(=O)C2CC(=O)Nc3ccccc32)cc1 (centres unmarked) [AVI-305]
  Average % competition: 0%

## C[C@H]1CC[C@H](CO)N(c2ncnc3[nH]ccc23)C1 [AVI-4063]
[1]
  Ki: 52 µM
  Ligand efficiency (binding enery per heavy atom): 0.33
[2]
  IC50: 56 µM

## OC1(CNc2ncnc3[nH]ccc23)CCOCC1 [AVI-4314]
[1]
  Ki: 210 µM
  Ligand efficiency (binding enery per heavy atom): 0.28
[2]
  IC50: 230 µM

## OC1CC(Cn2ccnc2)CC1Nc1ncnc2[nH]ccc12 (centres unmarked) [AVI-3725]
[3]
  Average % competition: 29%
[4]
  inhibition at 200 µM: 29%

## CC(=O)Nc1ccc(S(=O)(=O)CCCN2C(=O)CC(C)(C(C)C)C2=O)cc1 (centres unmarked) [AVI-299]
  Average % competition: 19%

## Cc1c[nH]c2ncnc(NCC3(O)CCSCC3)c12 [AVI-4195, 4-(((5-methyl-7H-pyrrolo[2,3-d]pyrimidin-4-yl)amino)methyl)tetrahydro-2H-thiopyran-4-ol]
[1]
  Ki: 48 µM
  Ligand efficiency (binding enery per heavy atom): 0.31
[2]
  IC50: 52 µM

## Cc1nc(-c2cccc(NC(=O)NCc3cccs3)c2)n[nH]1 [AVI-306]
dose-response, read-out: IC50
  IC50: > 1000 µM

## Nc1ncnc2sc3c(c12)CCN(C(=O)[C@H]1CC=CCC1)C3 [AVI-331]
  Average % competition: <10%

## CC1(c2ccc(F)cc2)CN(C(=O)c2cnc(N)nc2C(F)(F)F)C1 [AVI-340]
  Average % competition: 20%

## O=C(O)C1CN(C(=O)c2ccc3c(c2)OCCO3)CCO1 (centres unmarked) [AVI-323]
  Average % competition: 7%

## O[C@H]1CNCC[C@@H]1Nc1ncnc2[nH]ccc12 [AVI-615]
[8]
  inhibition at 200 µM: < 10%
[4]
  inhibition at 200 µM: < 10%

— article PMC12118597 (Science Advances, 2025)
